# Laboratory results: paper PMC4452638, “Synthesis and preclinical evaluation of DOTAGA-conjugated PSMA ligands for functional imaging and endoradiotherapy of prostate cancer” (EJNMMI Research, 2014)
# What was measured:
# [1] = tested on: PSMA-expressing LNCaP cells; test: Internalization studies / cell binding in LNCaP cells; type: cell-based, human; details: 37°C, 1 h, 125,000 cells/well, corrected for unspecific binding
# Protocol: (§1) Cell culture: PSMA^+ LNCaP cells (CLS: 300265) were grown in DMEM/Nutrition Mix F-12 with Glutamax-I (1:1) (Invitrogen, Life Technologies, Darmstadt, Germany) supplemented with 10% FCS. Cultures were maintained at 37°C in a 5% CO2/humidified air atmosphere. One day prior to the experiment, cells were harvested using Trypsin/EDTA (0.05% and 0.02%) in PBS, centrifuged and resuspended with culture medium. For cell counting, a Countesse automated cell counter (Invitrogen, Carlsbad, USA) was used. All in vitro binding and internalization studies were performed using live cells seeded 1 day prior to the experiment. For IC50 determination, 150,000 cells/mL were transferred to 24-well plates (1 mL/well), and for internalization studies, 125,000 cells/mL were transferred into PLL-coated 24-well plates.
# Internalization studies: The culture medium was removed, and the cells were washed once with 500 μL DMEM-F12 (5% BSA) before being left to equilibrate in 200 μL DMEM-F12 (5% BSA) at 37°C for a minimum of 15 min. Then, 25 μL (per well) of either DMEM-F12 (5% BSA) or of a 100-μM PMPA solution (blocking) was added, followed by the addition of 25 μL of ^68Ga/^177Lu-labelled PSMA ligand. The final radioligand concentration was 0.2/0.5 nM in all internalization assays. To determine internalization kinetics, cells were then incubated at 37°C for 5, 15, 30 and 60 min, respectively. Experiments were carried out in triplicate for each time point (control and blocking). Incubation was terminated by placing the plate on ice for approximately 1 min and by subsequent removal of the incubation medium. Cells were thoroughly rinsed with 250 μL of PBS. The wash medium was combined with the supernatant of the previous step. This fraction represents the amount of free radioligand. To remove receptor surface bound radioactivity, the cells were then incubated for 10 min with 250 μL of ice cold PMPA solution (10 μM in PBS). After removal of the supernatant, the cells were thoroughly rinsed with another 250 μL of ice cold PBS. Both fractions were combined. The internalized activity was released by incubation with 250 μL of 1 N NaOH, transferred to vials and combined with 250 μL of 1 N NaOH used for rinsing the wells. Quantification of the amount of free, PMPA-releasable and internalized activity was performed in a γ-counter.
# The cellular uptake and internalization kinetics of the different ^68Ga- and ^177Lu-labelled PSMA ligands was determined using PSMA-expressing LNCaP cells. In the case of the ^68Ga-labelled compounds, the final peptide concentration in the assays was 0.2 nM. […] All internalization studies were accompanied by reference studies using ([^125I]I-BA)KuE (c = 0.2 nM). This experimental setup allows data normalization and eliminates the influence of cell count and cell viability on absolute cellular tracer uptake. […] Furthermore, to be able to discriminate between total cellular activity (sum of membrane associated and internalized activity) and internalized activity, all incubations were followed by a washing step with 10 μM PMPA at 4°C to remove specifically cell-surface bound radioligand by displacement.
# [2] = Determination of lipophilicity (shake flask, n-octanol/PBS); type: physicochemical
# Protocol: To a solution of 0.5 to 1 MBq of radiolabelled peptide in 500 μl of phosphate-buffered saline (PBS, pH 7.4), 500 μl of n-octanol was added (n = 6). Vials were vortexed vigorously for 3 min. To achieve quantitative phase separation, the vials were centrifuged at 6,000 g for 5 min in a Biofuge 15 (Heraeus Sepatech, Osterode, Germany). The activity concentrations in 100 μl-samples of both the aqueous and the organic phase were measured in a γ-counter. Both the partition coefficient P(o/w), which is defined as the molar concentration ratio of a single species A between n-octanol and water at equilibrium, and logP(o/w), which is an important parameter used to characterize lipophilicity of a compound, were calculated.
# The partition coefficient logP between n-octanol and PBS was determined for the compounds listed in Table 3 using the shake flask method. All compounds are highly hydrophilic, with the DOTAGA compounds being up to one order of magnitude more hydrophilic than the corresponding DOTA analogues. Amongst all compounds tested, [^68Ga]HBED-CC-Ahx-KuE was the most hydrophilic compound.
# PSMA = molecular target: T1, PSMA (Homo sapiens, UniProt Q04609); test: Competitive PSMA binding assay on LNCaP cells with ([125I]I-BA)KuE as radioligand; details: LNCaP cells 150,000/well, ([125I]I-BA)KuE c = 0.2 nM, HBSS (1% BSA), 4°C, 1 h, mean ± SD (n = 3); read-out: IC50 (PSMA affinity)
# T1 construct: host or cells: LNCaP human prostate carcinoma cells
# Protocol: as §1
# Then, 25 μL/well of either HBSS (1% BSA; control) or of solutions containing the respective unlabelled ligand of interest in increasing concentrations (10^-10-10^-4 M in HBSS (1% BSA)) was added, followed by the addition of 25 μL of ([^125I]I-BA)KuE in HBSS (1% BSA). Experiments were carried out in triplicate for each concentration. The final radioligand concentration was 0.2 nM in all binding assays. Cells were incubated on ice for 60 min. Incubation was terminated by the removal of the incubation medium. Cells were thoroughly rinsed with 250 μL of HBSS. The wash medium was combined with the supernatant of the previous step. This fraction represents the amount of free radioligand. Cells were then lysed using 250 μL of 1 N NaOH, the lysate was transferred to vials and combined with 250 μL of HBSS used for rinsing the wells. Quantification of the amount of free and bound activity was performed in a γ-counter.
# The PSMA binding affinities were determined in a competitive binding assay using LNCaP human prostate carcinoma cells and the known high affinity PSMA ligand ([^125I]I-BA)KuE [10] (c = 0.2 nM) as the radioligand. The IC50 values for the metal-free PSMA-inhibiting compounds and their respective ^natGa and ^natLu complexes are summarized in Table 1. HBED-CC-Ahx-KuE and [^natGa]HBED-CC-Ahx-KuE [12] were included in this study as reference compounds.
# [3] = Stability in human serum (TLC analysis); type: in vitro ADME; details: 37°C, 48 h
# Protocol: (§2) ^177Lu-10 and ^177Lu-11 were incubated in 80 μL of human serum (37°C) and 80 μL 0.4 M DTPA solution (RT), respectively and after 1, 24 and 48 h, the stability was determined by TLC analysis. The ^68Ga-labelled tracers (40 to 45 MBq) were injected into the tail vein of CD-1 nu/nu mice. The animals were sacrificed after 30 min, and urine, blood and kidney samples were taken. The kidney was frozen in liquid nitrogen, homogenized with a ball mill and extracted with 0.2 to 1 mL PBS containing 200 nmol 2-(phosphonomethyl)pentane-1,5-dioic acid (PMPA). The suspension was first centrifuged (15,000 g), and after ultrafiltration, the extracts were analysed by RP-HPLC. The blood samples were centrifuged to separate the plasma from the blood cells. Plasma proteins were removed by precipitation with acetonitrile (10 min, 4°C) and subsequent centrifugation and ultrafiltration. The blood extract was also analysed by RP-HPLC.
# (§3) The stability of ^177Lu-10 and ^177Lu-11 was investigated by incubation in human serum for 48 h at 37°C and by DTPA challenge (0.4 M, RT, 48 h) and subsequent TLC analysis. Release of ^177Lu^III from the complexes was not observed under the respective experimental conditions in the examined time frame.
# [4] = DTPA challenge (TLC analysis); type: physicochemical; details: DTPA challenge 0.4 M, RT, 48 h
# Protocol: as §2, §3
# LNCaP tumour xenograft = test: Biodistribution in LNCaP-tumour-bearing mice; type: in vivo; details: LNCaP-tumour bearing CD-1 nu/nu mice, 1 h p.i.
# Protocol: All animal experiments were conducted in accordance with general animal welfare regulations in Germany (Deutsches Tierschutzgesetz, approval #55.2-1-54-2532-71-13). The prostate cancer cell line LNCaP was suspended 1/1 in serum-free medium and Matrigel (BD Biosciences, Germany) and approximately 10^7 cells in 200 μL were inoculated subcutaneously on the right shoulder of 6 to 8 weeks old CD-1 nu/nu mice (Charles River Laboratories). Tumours were grown for 2 to 4 weeks (males) and 4 to 6 weeks (females) to reach 4 to 8 mm in diameter.
# Biodistribution: The ^68Ga-labelled PSMA ligands (approximately 7 to 15 MBq, 0.1 to 0.2 nmol) were injected into the tail vein of isoflurane anesthetized animals. The organ distribution was examined 1 h p.i. and quantified in a γ-counter.
# A comparison of the biodistribution of compounds ^68Ga-11, ^68Ga-12 and the reference [^68Ga]HBED-CC-Ahx-KuE in LNCaP-tumour-bearing CD-1 nu/nu mice (1 h p.i.) is shown in Figure 7.
# [5] = In vivo metabolite analysis by radio-HPLC; details: CD-1 nu/nu mice, 0.5 h p.i.
# Protocol: as §2
# To investigate the influence of the amino acid composition of the spacer (KFF vs kff) on the metabolic stability in vivo, tissue homogenates and body fluids of mice injected with ^68Ga-11 and ^68Ga-12 were analysed by radio-HPLC. Extraction efficiencies from the blood and from the kidney were 56% and 43% for ^68Ga-11 and 61% and 62% for ^68Ga-12, respectively.
# [6] = n-octanol/PBS pH 7.4, mean ± SD (n = 6)
# T1 sequence (Q04609 whole entry): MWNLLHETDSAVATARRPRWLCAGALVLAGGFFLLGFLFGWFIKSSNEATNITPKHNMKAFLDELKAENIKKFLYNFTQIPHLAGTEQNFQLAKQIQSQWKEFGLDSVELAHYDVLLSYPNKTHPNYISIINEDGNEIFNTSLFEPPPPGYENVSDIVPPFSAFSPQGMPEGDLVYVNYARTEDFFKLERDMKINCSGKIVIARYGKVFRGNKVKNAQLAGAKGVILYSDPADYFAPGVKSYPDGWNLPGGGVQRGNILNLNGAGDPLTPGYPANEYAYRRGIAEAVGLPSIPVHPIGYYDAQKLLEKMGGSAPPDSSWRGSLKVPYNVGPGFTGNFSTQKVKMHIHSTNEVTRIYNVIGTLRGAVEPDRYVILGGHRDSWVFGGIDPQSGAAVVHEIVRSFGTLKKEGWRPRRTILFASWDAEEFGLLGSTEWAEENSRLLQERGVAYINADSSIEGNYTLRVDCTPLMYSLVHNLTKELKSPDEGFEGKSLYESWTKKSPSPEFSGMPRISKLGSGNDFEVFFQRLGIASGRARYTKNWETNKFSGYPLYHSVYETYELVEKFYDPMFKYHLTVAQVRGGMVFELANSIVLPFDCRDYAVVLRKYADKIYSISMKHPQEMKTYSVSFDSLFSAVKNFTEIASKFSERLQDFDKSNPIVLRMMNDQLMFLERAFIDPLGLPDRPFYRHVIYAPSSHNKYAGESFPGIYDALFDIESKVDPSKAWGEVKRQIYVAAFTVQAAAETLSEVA
molecule,measurement,setting,value
"[^68Ga]DOTA-FFK(Sub-KuE) [^68Ga-10, reference compound]",Internalization (1 h) in % of ([125I]I-BA)KuE,"[1]; 68Ga compounds, c = 0.2 nM",14.6 ± 0.8%
same,log P (o/w),[2]; [6],−3.1 ± 0.2
[^natGa]DOTAGA-FFK(Sub-KuE) [^natGa-11],IC50,PSMA,12.1 ± 3.9 nM
"[^natLu]DOTA-FFK(Sub-KuE) [^natLu-10, reference compound]",IC50,PSMA,54.7 ± 6.1 nM
"[^natGa]DOTA-FFK(Sub-KuE) [^natGa-10, reference compound]",IC50,PSMA,29.5 ± 6.6 nM
[^natLu]DOTAGA-FFK(Sub-KuE) [^natLu-11],IC50,PSMA,15.1 ± 1.5 nM
[^177Lu]DOTAGA-ffk(Sub-KuE) [^177Lu-12],Internalization (1 h) in % of ([125I]I-BA)KuE,"[1]; 177Lu compounds, c = 0.5 nM",44.4 ± 1.8%
same,log P (o/w),"[2]; n-octanol/PBS, listed for 11/12 but determined for the FFK analogue 11 only (footnote a)",−3.9 ± 0.1
"O=C(O)CCc1ccc(O)c(CN(CCN(CC(=O)O)Cc2cc(CCC(=O)NCCCCCC(=O)NCCCC[C@H](NC(=O)N[C@@H](CCC(=O)O)C(=O)O)C(=O)O)ccc2O)CC(=O)O)c1 [HBED-CC-Ahx-KuE, reference compound]",IC50,PSMA,5.7 ± 0.5 nM
[^natGa]DOTAGA-ffk(Sub-KuE) [^natGa-12],IC50,PSMA,15.9 ± 0.5 nM
"O=C(O)CC[C@H](NC(=O)N[C@@H](CCCCNC(=O)CCCCCCC(=O)NCCCC[C@H](NC(=O)[C@H](Cc1ccccc1)NC(=O)[C@H](Cc1ccccc1)NC(=O)CCC(C(=O)O)N1CCN(CC(=O)O)CCN(CC(=O)O)CCN(CC(=O)O)CC1)C(=O)O)C(=O)O)C(=O)O (some centres unmarked) [compound 11, DOTAGA-FFK(Sub-KuE)]",IC50,PSMA,10.2 ± 1.5 nM
[^natLu]DOTAGA-ffk(Sub-KuE) [^natLu-12],IC50,PSMA,13.1 ± 2.2 nM
"[^177Lu]DOTA-FFK(Sub-KuE) [^177Lu-10, reference compound]",Internalization (1 h) in % of ([125I]I-BA)KuE,"[1]; 177Lu compounds, c = 0.5 nM",19.3 ± 0.9%
same,Release of 177Lu(III) from the complex,[3],not observed
same,Release of 177Lu(III) from the complex,[4],not observed
same,log P (o/w),[2]; [6],−2.7 ± 0.02
"O=C(O)CC[C@H](NC(=O)N[C@@H](CCCCNC(=O)CCCCCCC(=O)NCCCC[C@H](NC(=O)[C@H](Cc1ccccc1)NC(=O)[C@H](Cc1ccccc1)NC(=O)CN1CCN(CC(=O)O)CCN(CC(=O)O)CCN(CC(=O)O)CC1)C(=O)O)C(=O)O)C(=O)O [compound 10, DOTA-FFK(Sub-KuE), reference compound]",IC50,PSMA,13.1 ± 2.3 nM
"O=C(O)CC[C@H](NC(=O)N[C@@H](CCCCNC(=O)CCCCCCC(=O)NCCCC[C@@H](NC(=O)[C@@H](Cc1ccccc1)NC(=O)[C@@H](Cc1ccccc1)NC(=O)CCC(C(=O)O)N1CCN(CC(=O)O)CCN(CC(=O)O)CCN(CC(=O)O)CC1)C(=O)O)C(=O)O)C(=O)O (some centres unmarked) [compound 12, DOTAGA-ffk(Sub-KuE)]",IC50,PSMA,13.9 ± 0.4 nM
[^177Lu]DOTAGA-FFK(Sub-KuE) [^177Lu-11],Internalization (1 h) in % of ([125I]I-BA)KuE,"[1]; 177Lu compounds, c = 0.5 nM",36.1 ± 1.1%
same,Release of 177Lu(III) from the complex,[3],not observed
same,Release of 177Lu(III) from the complex,[4],not observed
same,log P (o/w),[2]; [6],−3.9 ± 0.1
[^natGa]HBED-CC-Ahx-KuE [reference compound],IC50,PSMA,6.1 ± 0.8 nM
[^68Ga]HBED-CC-Ahx-KuE [reference compound],Internalization (1 h) in % of ([125I]I-BA)KuE,"[1]; 68Ga compounds, c = 0.2 nM",91.1 ± 1.7%
same,Tracer uptake into liver,LNCaP tumour xenograft,0.5 ± 0.1 % ID/g
same,Tracer uptake into lung,LNCaP tumour xenograft,1.9 ± 0.4 % ID/g
same,Tracer uptake into pancreas,LNCaP tumour xenograft,0.9 ± 0.2 % ID/g
same,Tracer uptake into spleen,LNCaP tumour xenograft,14.7 ± 2.6 % ID/g
same,Tumour-to-blood ratio,LNCaP tumour xenograft,12.5 ± 0.7
same,Tumour-to-skeletal muscle ratio,LNCaP tumour xenograft,16.2 ± 0.1
same,Uptake into LNCaP tumour xenograft,LNCaP tumour xenograft,4.7 ± 0.2 % ID/g
same,log P (o/w),[2]; [6],−4.1 ± 0.1
[^68Ga]DOTAGA-FFK(Sub-KuE) [^68Ga-11],Intact tracer in blood,[5],21%
same,Internalization (1 h) in % of ([125I]I-BA)KuE,"[1]; 68Ga compounds, c = 0.2 nM",28.4 ± 0.7%
same,log P (o/w),[2]; [6],−3.6 ± 0.1
